Source: patent publication US12116358B2, “Substituted indoles and methods of use thereof” (EPIZYME, INC., priority 2018, dated 2024)
Like-named read-outs stand apart in the source and are kept apart here.

Experiments:
H3K36me3 in A549 cells = assay: In-Cell Western (ICW) assay of SETD2 inhibitors (A549 assay); type: cell-based, human; settings: A549 cells, read-out: SETD2 A549
Procedure, shortened: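 A549 cells seeded at 4,000/well onto compound and incubated 3 days at 37° C. Methanol-fixed cells stained overnight at 4° C with anti-H3K36me3 (1:1000), then IRDye 800CW secondary with DRAQ5 DNA counterstain. Plates read by Licor imaging at 700 and 800 channels.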

SETD2(1434-1711) = molecular target: T1, SETD2(1434-1711) (Homo sapiens, UniProt Q9BYW2); assay: SETD2 (1434-1711) assay; type: biochemical; settings: read-out: SETD2 (1434-1711)
T1 construct: SETD2 (1434-1711) Assay; catalogue N/A
T1 sequence (Q9BYW2 1434-1711): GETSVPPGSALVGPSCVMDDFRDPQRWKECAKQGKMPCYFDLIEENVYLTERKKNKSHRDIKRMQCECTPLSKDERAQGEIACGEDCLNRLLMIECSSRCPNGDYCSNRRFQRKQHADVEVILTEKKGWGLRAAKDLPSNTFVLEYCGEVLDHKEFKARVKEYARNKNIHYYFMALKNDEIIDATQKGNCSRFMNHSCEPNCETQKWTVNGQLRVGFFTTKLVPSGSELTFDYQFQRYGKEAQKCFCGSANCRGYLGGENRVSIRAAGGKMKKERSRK

SMILES	IC50 (H3K36me3 in A549 cells) [µM]	IC50 (SETD2(1434-1711)) [µM]	IC50 (H3K36me3 in A549 cells; Homo sapiens) [µM]
CCC1CN(C2CCCC(NC(=O)c3cc4c(F)ccc(C)c4[nH]3)C2)CCN1C(C)=O (stereo not drawn) [compound 1055]	0.005	0.009	
Cc1ccc(F)c2cc(C(=O)N[C@@H]3CCC[C@H](N4CCn5c(nn(C)c5=O)C4)C3)[nH]c12 [compound 1056]		0.09	0.3
Cc1ccc(F)c2cc(C(=O)N[C@@H]3CCC[C@H](N4CCn5c(cn(C)c5=O)C4)C3)[nH]c12 [compound 1057]		0.04	0.1
Cc1ccc(F)c2cc(C(=O)N[C@@H]3CCC[C@H](N4CCn5c(n[nH]c5=O)C4)C3)[nH]c12 [compound 1058]		0.04	0.6
Cc1ccc(F)c2cc(C(=O)N[C@@H]3CCC[C@H](N4CCn5c(c[nH]c5=O)C4)C3)[nH]c12 [compound 1059]		0.02	0.6
Cc1ccc(F)c2cc(C(=O)N[C@@H]3CCC[C@H](N4CC[C@H](N(CCO)S(C)(=O)=O)C4)C3)[nH]c12 [compound 1061]		0.02	0.3
CC(=O)N1[C@H](C)CN([C@H]2CCC[C@@H](NC(=O)c3cc4c(F)ccc(C)c4[nH]3)C2)C[C@H]1C [compound 1062]		0.01	0.01
COCC(=O)N(C)[C@H]1CCN([C@@H]2CCC[C@@H](NC(=O)c3cc4c(F)ccc(C)c4[nH]3)C2)C1 [compound 1063]		2.9	> 2
Cc1ccc(F)c2cc(C(=O)N[C@@H]3CCC[C@@H](c4ccncn4)C3)[nH]c12 [compound 1064]		2.3	> 2
Cc1nc([C@@H]2CCC[C@H](NC(=O)c3cc4c(F)ccc(C)c4[nH]3)C2)no1 [compound 1065]		9.1	> 2
Cc1ccc(F)c2cc(C(=O)NC3CCCC(N4CCn5nc(C(F)(F)F)nc5C4)C3)[nH]c12 (stereo not drawn) [compound 1066]	> 2	5.5	
Cc1ccc(F)c2cc(C(=O)NC3CCCC(N4CCN5C(=O)COCC5C4)C3)[nH]c12 (stereo not drawn) [compound 1067]	1.2	0.9	
Cc1ccc(F)c2cc(C(=O)N[C@@H]3CCC[C@H](c4cc(=O)[nH]cn4)C3)[nH]c12 [compound 1068]		0.1	0.7
CC(=O)N1CCN([C@H]2CCC[C@@H](NC(=O)c3cc4c(F)ccc(C)c4[nH]3)C2)C[C@H]1C(F)(F)F [compound 1070]		0.01	0.01
CC(=O)N1CCN([C@@H]2CCC[C@@H](NC(=O)c3cc4c(F)ccc(C)c4[nH]3)C2)C[C@@H]1C(F)(F)F [compound 1071]		5.2	> 2
CC(=O)N1CCN([C@@H]2CCC[C@@H](NC(=O)c3cc4c(F)ccc(C)c4[nH]3)C2)C[C@H]1C(F)(F)F [compound 1072]		2.3	> 2
CC(=O)N1CCN([C@@H]2CCC[C@@H](NC(=O)c3cc4c(F)ccc(C)c4[nH]3)C2)[C@@H](C)C1 [compound 1074]		4.5	> 2
CC(=O)N1CCN([C@@H]2CCC[C@@H](NC(=O)c3cc4c(F)ccc(C)c4[nH]3)C2)C[C@H]1CO [compound 1076]		1.4	1.7
CC(=O)N1CCN(C[C@@H]2CCC[C@H](NC(=O)c3cc4c(F)ccc(C)c4[nH]3)C2)CC1 [compound 1077]		> 10	> 2
Cc1ccc(F)c2cc(C(=O)NC3CCCC(N4CCN5C(=O)CCCC5C4)C3)[nH]c12 (stereo not drawn) [compound 1078]	0.03	0.01	
Cc1ccc(F)c2cc(C(=O)N[C@@H]3CCC[C@@H](N4CCN5C(=O)CCC[C@@H]5C4)C3)[nH]c12 [compound 1079]		0.3	1.3
Cc1ccc(F)c2cc(C(=O)NC3CCCC(N4CCN5C(=O)CCCC5C4)C3)[nH]c12 (stereo not drawn) [compound 1080]	1.7	0.5	
Cc1ccc(F)c2cc(C(=O)N[C@@H]3CCC[C@@H](N4CCN5C(=O)NC[C@H]5C4)C3)[nH]c12 [compound 1082]		0.6	> 2
Cc1ccc(F)c2cc(C(=O)NC3CCCC(N4CCN5C(=O)NCC5C4)C3)[nH]c12 (stereo not drawn) [compound 1083]	0.05	0.02	
Cc1ccc(F)c2cc(C(=O)NC3CCCC(N4CCN5C(=O)NCC5C4)C3)[nH]c12 (stereo not drawn) [compound 1084]	0.5	0.1	
CC[C@H]1CN([C@H]2CCC[C@@H](NC(=O)c3cc4c(F)ccc(C)c4[nH]3)C2)CCN1C(C)=O [compound 1085]		0.03	0.1
CC[C@H]1CN([C@@H]2CCC[C@@H](NC(=O)c3cc4c(F)ccc(C)c4[nH]3)C2)CCN1C(C)=O [compound 1086]		0.8	> 2
